Data published in ChEMBL document CHEMBL5727699, “Pyrimido-pyridazinone compounds and methods of use thereof” (2020).

Molecular target: Tyrosine-protein kinase JAK2 (Homo sapiens, UniProt O60674)
Assay: Thirteen μL of assay buffer in blank and substrate control wells and 13 μL of Enzyme buffer mix in positive and test wells was added. The reaction mixture was incubated for 30 minutes at RT on a plate shaker. […] The reaction plate was incubated for 60 minutes at RT on a plate shaker. The reaction was stopped by adding 40 mM EDTA (10 μL) in buffer. Ten μL of antibody was added to all the wells.

Chain of Tyrosine-protein kinase JAK2 (O60674 whole entry): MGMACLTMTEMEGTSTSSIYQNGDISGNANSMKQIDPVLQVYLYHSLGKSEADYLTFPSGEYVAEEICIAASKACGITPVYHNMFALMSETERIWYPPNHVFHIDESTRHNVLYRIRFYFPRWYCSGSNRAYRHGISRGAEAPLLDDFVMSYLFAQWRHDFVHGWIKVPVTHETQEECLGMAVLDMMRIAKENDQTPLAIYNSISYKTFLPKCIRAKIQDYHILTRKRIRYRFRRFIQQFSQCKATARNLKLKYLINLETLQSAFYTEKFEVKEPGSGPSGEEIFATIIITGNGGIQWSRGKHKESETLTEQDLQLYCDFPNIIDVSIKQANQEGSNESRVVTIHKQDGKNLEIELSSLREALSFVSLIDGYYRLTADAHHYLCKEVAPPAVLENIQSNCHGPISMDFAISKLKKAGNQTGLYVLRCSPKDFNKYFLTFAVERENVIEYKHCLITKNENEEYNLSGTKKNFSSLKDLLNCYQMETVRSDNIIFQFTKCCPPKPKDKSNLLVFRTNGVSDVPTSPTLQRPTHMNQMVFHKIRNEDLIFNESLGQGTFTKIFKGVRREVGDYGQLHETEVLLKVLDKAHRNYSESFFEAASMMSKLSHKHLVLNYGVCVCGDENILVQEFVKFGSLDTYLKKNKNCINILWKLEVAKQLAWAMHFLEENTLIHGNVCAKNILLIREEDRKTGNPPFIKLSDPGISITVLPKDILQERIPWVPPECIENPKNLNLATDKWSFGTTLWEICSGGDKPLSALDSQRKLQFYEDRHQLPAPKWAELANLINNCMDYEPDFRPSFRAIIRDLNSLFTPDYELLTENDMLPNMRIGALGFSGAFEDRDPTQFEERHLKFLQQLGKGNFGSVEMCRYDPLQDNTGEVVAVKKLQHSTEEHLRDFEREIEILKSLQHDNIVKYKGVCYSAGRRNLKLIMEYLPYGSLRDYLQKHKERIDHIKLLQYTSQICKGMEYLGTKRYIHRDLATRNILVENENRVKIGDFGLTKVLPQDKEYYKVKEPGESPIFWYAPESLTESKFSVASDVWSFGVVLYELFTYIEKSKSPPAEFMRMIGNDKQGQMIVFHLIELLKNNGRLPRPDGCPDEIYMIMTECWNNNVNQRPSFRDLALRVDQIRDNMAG

CC(C)(C#N)N1CCN(c2ccc(Nc3nc(N4CCCCCC4)nc4cn[nH]c(=O)c34)cc2)CC1
IC50: > 0.1 µM
